Assay results from PubChem BioAssay (NCI).
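48-hour exposure; five concentrations; linearly interpolated endpoints. TGI: concentration producing complete growth inhibition.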

Assays:
Test in all cases: inhibition of tumour cell growth, NCI panel, 48 h
[1] = system: SW-620 colon
[2] = system: PC-3 prostate
[3] = system: NCI/ADR-RES ovarian
[4] = system: NCI-H23 lung
[5] = system: HCT-116 colon
[6] = system: NCI-H460 lung
[7] = system: UACC-257 melanoma
[8] = system: MOLT-4 leukemia
[9] = system: EKVX NSCLC
[10] = system: NCI-H522 lung
[11] = system: K-562 leukemia
[12] = system: A549 NSCLC
[13] = system: UACC-62 melanoma
[14] = system: RPMI-8226 leukemia
[15] = system: T-47D breast
[16] = system: 786-0 renal
[17] = system: SNB-19 CNS
[18] = system: SK-OV-3 ovarian
[19] = system: M14 melanoma
[20] = system: COLO 205 colon

Compound	TGI [1] [µM]	TGI [2] [µM]	TGI [3] [µM]	TGI [4] [µM]	TGI [5] [µM]	TGI [6] [µM]	TGI [7] [µM]	TGI [8] [µM]	TGI [9] [µM]	TGI [10] [µM]	TGI [11] [µM]	TGI [12] [µM]	TGI [13] [µM]	TGI [14] [µM]	TGI [15] [µM]	TGI [16] [µM]	TGI [17] [µM]	TGI [18] [µM]	TGI [19] [µM]	TGI [20] [µM]
Clc1ccc(CCNC2(c3cc4ccccc4s3)CCCCC2)cc1Cl	> 100	> 100	80.8	> 100	29.3	40.3	42.7	37.9	81.3	43.9	36.7	> 100	37.2	32.1	46	36.8	> 100	> 100	> 100	49.2
O=c1cc(-c2ccccc2)[nH]c2ncccc12	> 100	> 27.9	0.414	–	> 54	> 52.1	> 100	> 100	> 100	0.702	> 100	> 100	–	> 100	> 100	> 100	> 100	1.89	> 100	–
N[C@H]1c2c(Br)sc(Br)c2C(=O)[C@H]1O	25.8	> 75.1	> 58.9	17.5	34.9	35.6	29.7	> 22	30.2	8.97	15.2	70.1	23.7	57.4	50.3	34.5	55.5	38.3	48.4	22.2
Cc1ccc(S(=O)(=O)N2CCC[C@@H]2C(=O)O[C@@H]2CCC3CC=CC32)cc1 (some centres undefined)	> 100	69.6	63.2	> 100	> 100	> 100	64.4	> 100	> 100	50.8	> 100	> 100	> 100	61.3	> 100	55.4	> 100	48.3	> 100	31.2
CNC(=O)N(CCC#N)CCN(C(=O)NC)c1ccccc1	> 100	> 100	> 100	> 100	> 100	> 100	> 100	> 100	> 100	> 100	> 100	> 100	> 100	> 100	> 100	> 100	> 100	> 100	> 100	> 100
COc1ccc(-n2c(SC(CN3CCOCC3)CN3CCCC3=O)nc3ccccc3c2=O)cc1 (centres undefined)	> 100	> 100	> 100	> 100	> 100	> 100	> 100	> 100	> 100	> 100	> 100	> 100	> 100	> 100	> 100	> 100	> 100	> 100	> 100	> 100
CN(C)Cc1c(O)ccc2c1c1c(n2C)C(=O)c2ccccc2C1=O	> 100	32.7	18.3	27.4	> 100	> 100	23.9	> 100	> 100	20.8	> 100	> 100	18.2	> 100	> 100	> 100	> 100	> 100	> 100	40
CCC(=O)Nc1cccc(N=Cc2ccc(OC(=O)/C=C\c3ccccc3)cc2)c1	> 75	> 75	> 75	> 75	> 75	> 75	> 75	> 75	> 75	> 75	> 75	> 75	> 75	> 75	37.7	> 75	> 75	> 75	> 75	> 75
O=C1CC(/C=C/c2ccco2)=C(O)C1=O	31.6	25.4	> 100	27.2	30.4	35.6	33.2	60.8	37.6	31.7	49	62.8	30.1	40.2	35.8	–	30.9	54.5	29.2	29.2
Cc1ccc(Cc2cc(N3CCN(c4cccc(Cl)c4)CC3)nnc2C)cc1	> 100	> 100	> 100	> 100	> 100	> 100	> 100	–	> 100	81.5	–	> 100	> 100	> 100	> 100	> 100	> 100	> 100	> 100	73.8
COC(=O)CN(CC(=O)NCCCBr)C1CCCCC1N(CC(=O)OC)CC(=O)OC (centres undefined)	> 100	> 100	> 100	> 100	> 100	> 100	> 100	> 100	> 100	> 100	> 100	> 100	> 100	> 100	> 100	> 100	> 100	> 100	–	> 100
CC(C)C(Nc1ncnc2nc[nH]c12)C(=O)O (centres undefined)	> 100	> 100	> 100	> 100	> 100	> 100	> 100	–	> 100	> 100	> 100	> 100	> 100	> 100	> 100	> 100	> 100	> 100	> 100	> 100
CCn1c2nc(=O)n(CCCCCCCCSC(c3ccccc3)(c3ccccc3)c3ccccc3)c(=O)c-2nc2ccccc21	> 100	> 100	> 100	> 100	> 100	> 100	> 100	24.6	> 100	> 100	> 100	–	–	> 100	> 100	> 100	–	> 100	31.6	–
O=C1c2cc(I)ccc2N2CCN=C2N1Cc1ccccc1	> 100	> 100	> 100	> 100	> 100	> 100	> 100	> 100	> 100	> 100	> 100	> 100	–	> 100	> 100	> 100	> 100	> 100	> 100	> 100
Cn1c(-c2ccc[se]2)ccc1-c1ccc(C=O)[se]1	> 51.6	> 100	9.13	48.9	> 100	24.2	3.5	> 100	> 100	35.2	> 100	> 100	–	> 70.2	12.4	> 100	> 100	42.3	> 100	> 49.4
O=c1[nH]c(=O)c2ncn(-c3ccc([N+](=O)[O-])cn3)c2[nH]1	> 100	> 100	> 100	> 100	> 100	> 100	> 100	> 100	> 100	–	> 100	> 100	> 100	> 100	> 100	> 100	> 100	> 100	> 100	> 100
CCN1c2ccccc2NC(=S)c2c1n[nH]c2-c1ccccc1	84.7	84.6	60.9	> 100	> 100	77.2	> 100	38.2	> 100	52.8	39.8	84.5	> 100	43.9	74.5	–	–	> 100	> 100	> 100
COc1ccc2nc3c([N+](=O)[O-])ccc(NCCN(C)C)c3c(N)c2c1	0.562	2.81	3.03	3.73	0.296	2.95	3.99	2.46	3.79	–	0.607	3.29	3.63	0.557	2.91	3.31	3.98	3.13	3.03	2.31
Cc1cc2c(c(C(=O)NCC(=O)N[C@@H](C)C(=O)OCc3ccccc3)c1)Oc1c(cc(C)cc1C(=O)NCC(=O)N[C@@H](C)C(=O)OCc1ccccc1)S2	> 100	> 100	> 100	> 100	> 100	> 100	> 100	> 100	> 100	–	> 100	> 100	> 100	> 100	6.28	> 100	> 100	> 100	> 100	> 100
COc1cc(CC(C)=O)cc(OC)c1	> 100	> 100	> 100	> 100	> 100	> 100	> 100	73.2	> 100	–	> 100	> 100	> 100	> 100	> 100	> 100	> 100	> 100	> 100	> 100
COc1cc(C2S/C(=C/c3ccccc3)C(=O)N2Cc2ccccc2)cc(OC)c1OC (centres undefined)	–	> 100	> 100	> 100	47	–	> 100	> 100	> 100	62.8	> 100	> 100	> 100	> 100	41.1	> 100	> 100	> 100	> 100	> 100
Cc1ncc([N+](=O)[O-])n1CC[N+](C)([O-])CCCCn1ccnc1[N+](=O)[O-] (centres undefined)	> 100	> 100	> 100	> 100	> 100	> 100	> 100	> 100	> 100	> 100	> 100	> 100	> 100	> 100	> 100	> 100	–	> 100	> 100	> 100
CC(=O)O[C@H]1C(=O)[C@@]2(C)[C@H]([C@H](OC(=O)c3ccccc3)[C@]3(O)C[C@H](OC(=O)[C@H](O)[C@@H](NC(=O)c4ccccc4)c4ccc5ccccc5c4)C(C)=C1C3(C)C)[C@]1(OC(C)=O)CO[C@@H]1C[C@@H]2O	> 50	> 50	> 50	> 45.4	0.237	5.19	8.22	1.09	> 50	–	2.05	> 42.1	12.7	1.87	> 50	8.59	> 31.8	0.836	1.85	0.319
CC(=O)OCC1OC(N2C(=O)NC(=O)C3C=C4CCCCC4=CC32)CC1OC(C)=O (centres undefined)	> 100	> 100	> 100	–	> 100	> 100	> 100	> 100	> 100	> 100	> 100	> 100	> 100	> 100	> 100	> 100	> 100	> 100	> 100	–
